Experimental data from ChEMBL document CHEMBL1201862, “PubChem BioAssay data set” (2004).
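Where inhibition never reached the appropriate level, the endpoint shown equals the highest concentration tested. Otherwise, values were interpolated linearly from a five-concentration, 48-hour dose response in 96-well plates. GI50 = concentration required for 50% inhibition of growth.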 Calls of active or inactive are those of the source. Rule as the data show it: active = GI50 up to about 1.1 µM and inactive = higher.

What was measured:
Experiment in all cases: NCI anticancer screen, dose series, 48 h
U-251 = system: U-251
SF-295 = system: SF-295
OVCAR-5 = system: OVCAR-5
SK-MEL-5 = system: SK-MEL-5
OVCAR-4 = system: OVCAR-4
HCC 2998 = system: HCC 2998
K562 = system: K562
OVCAR-3 = system: OVCAR-3
IGROV-1 = system: IGROV-1
RPMI-8226 = system: RPMI-8226
NCI-H226 = system: NCI-H226
SF-539 = system: SF-539
SK-MEL-2 = system: SK-MEL-2
SNB-75 = system: SNB-75
SNB-19 = system: SNB-19
HOP-62 = system: HOP-62
DU-145 = system: DU-145
NCI/ADR-RES = system: NCI/ADR-RES
MDA-MB-435 = system: MDA-MB-435
Hs-578T = system: Hs-578T

SMILES	GI50 (U-251)	GI50 (SF-295)	GI50 (OVCAR-5)	GI50 (SK-MEL-5)	GI50 (OVCAR-4)	GI50 (HCC 2998)	GI50 (K562)	GI50 (OVCAR-3)	GI50 (IGROV-1)	GI50 (RPMI-8226)	GI50 (NCI-H226)	GI50 (SF-539)	GI50 (SK-MEL-2)	GI50 (SNB-75)	GI50 (SNB-19)	GI50 (HOP-62)	GI50 (DU-145)	GI50 (NCI/ADR-RES)	GI50 (MDA-MB-435)	GI50 (Hs-578T)
Cc1ccc(NC(=O)CC2C(=O)Nc3ccccc3S2(=O)=O)c(C)c1 (stereo not given)	12.7 µM (inactive)	25.5 µM (inactive)	24.7 µM (inactive)	4.78 µM (inactive)	18.7 µM (inactive)	13.4 µM (inactive)	4.66 µM (inactive)	14.1 µM (inactive)	12.4 µM (inactive)	15.2 µM (inactive)	17 µM (inactive)	15.5 µM (inactive)	29 µM (inactive)	15.2 µM (inactive)	14 µM (inactive)					
NNC(=O)CCC(=O)Nc1cc(Cl)c(Cl)cc1Cl	> 100 µM (inactive)	> 100 µM (inactive)	> 100 µM (inactive)	> 100 µM (inactive)	51.5 µM (inactive)	> 100 µM (inactive)	> 100 µM (inactive)	75.2 µM (inactive)	> 100 µM (inactive)	> 100 µM (inactive)	> 100 µM (inactive)	> 100 µM (inactive)	> 100 µM (inactive)	95.1 µM (inactive)	> 100 µM (inactive)	> 100 µM (inactive)				
O=C1Oc2ccccc2C(=O)/C1=C/N1C(=O)N/C(=C\c2cccc(O)c2)C1=O	> 100 µM (inactive)	67.3 µM (inactive)	> 100 µM (inactive)	70.8 µM (inactive)	85.9 µM (inactive)	55.7 µM (inactive)		> 100 µM (inactive)	31.3 µM (inactive)		> 100 µM (inactive)	99.5 µM (inactive)	46.2 µM (inactive)	8.36 µM (inactive)	45.3 µM (inactive)	69.7 µM (inactive)	72.9 µM (inactive)	> 100 µM (inactive)	54.2 µM (inactive)	
O=[N+]([O-])c1ccc(-c2ccc(C3=Nn4c(nnc4-c4ccc(Cl)cc4)SC3)o2)cc1	37.1 µM (inactive)	26.5 µM (inactive)	> 100 µM (inactive)	> 100 µM (inactive)	> 100 µM (inactive)	> 100 µM (inactive)	> 100 µM (inactive)	94.8 µM (inactive)	56 µM (inactive)	> 100 µM (inactive)	> 100 µM (inactive)	> 100 µM (inactive)	99.3 µM (inactive)	25.4 µM (inactive)	30.3 µM (inactive)	31 µM (inactive)				
CCOC(=O)C1=C(O)C(=O)c2c(OC)ccc(OC)c2C1=O	> 100 µM (inactive)	> 100 µM (inactive)	> 100 µM (inactive)	> 100 µM (inactive)	> 100 µM (inactive)	> 100 µM (inactive)	> 100 µM (inactive)	> 100 µM (inactive)	> 100 µM (inactive)	> 100 µM (inactive)	> 100 µM (inactive)	> 100 µM (inactive)	> 100 µM (inactive)	82.6 µM (inactive)	> 100 µM (inactive)	> 100 µM (inactive)				
Oc1ccc(-c2c3ccccc3c(-c3ccc(O)cc3)c3ccccc23)cc1	> 100 µM (inactive)	84.1 µM (inactive)	> 100 µM (inactive)	> 100 µM (inactive)	> 100 µM (inactive)	> 100 µM (inactive)	> 100 µM (inactive)	> 100 µM (inactive)	> 100 µM (inactive)	75.2 µM (inactive)	> 100 µM (inactive)	> 100 µM (inactive)	> 100 µM (inactive)	39.8 µM (inactive)	> 100 µM (inactive)	> 100 µM (inactive)				
CC1=C(NC(=O)/C(=N/NC(=S)NN)C2C(=O)CC(C)(C)CC2=O)C(=O)c2ccccc2C1=O	3.91 µM (inactive)	13.7 µM (inactive)	22.4 µM (inactive)	2.15 µM (inactive)	13.7 µM (inactive)	10.8 µM (inactive)	10.6 µM (inactive)	2.3 µM (inactive)	5.21 µM (inactive)	10.6 µM (inactive)	14 µM (inactive)	3.6 µM (inactive)	6.14 µM (inactive)	21.6 µM (inactive)	13 µM (inactive)	16.1 µM (inactive)				
CCOC(=O)C12C3CCC1C2C(=O)C3 (stereo not given)	> 100 µM (inactive)	> 100 µM (inactive)	> 100 µM (inactive)	> 100 µM (inactive)	> 100 µM (inactive)	> 100 µM (inactive)	> 100 µM (inactive)	> 100 µM (inactive)	> 100 µM (inactive)	> 100 µM (inactive)	> 100 µM (inactive)	> 100 µM (inactive)	> 100 µM (inactive)	> 100 µM (inactive)	> 100 µM (inactive)	> 100 µM (inactive)	> 100 µM (inactive)	> 100 µM (inactive)	> 100 µM (inactive)	
Cc1cc(OP2(=O)NCc3ncccc3O2)ccc1Cl (stereo not given)	> 100 µM (inactive)	> 100 µM (inactive)	> 100 µM (inactive)	> 100 µM (inactive)	> 100 µM (inactive)	40.6 µM (inactive)	84.5 µM (inactive)	> 100 µM (inactive)	> 100 µM (inactive)	> 100 µM (inactive)	> 100 µM (inactive)	> 100 µM (inactive)	> 100 µM (inactive)	> 100 µM (inactive)	> 100 µM (inactive)	> 100 µM (inactive)	> 100 µM (inactive)	> 100 µM (inactive)	> 100 µM (inactive)	
CCOC(=O)Cc1csc(N/C=C2/C(=O)Oc3ccccc3C2=O)n1	20 µM (inactive)	20.9 µM (inactive)	37.4 µM (inactive)	17.3 µM (inactive)	31.7 µM (inactive)			25.9 µM (inactive)	19.1 µM (inactive)	18.6 µM (inactive)	22.6 µM (inactive)	16.9 µM (inactive)	13.6 µM (inactive)	10.9 µM (inactive)	24.2 µM (inactive)	20.9 µM (inactive)		17.7 µM (inactive)	23.9 µM (inactive)	22 µM (inactive)
N#CCC(=O)c1cc(OCc2cc(OCc3ccc(Br)cc3)cc(OCc3ccc(Br)cc3)c2)cc(OCc2cc(OCc3ccc(Br)cc3)cc(OCc3ccc(Br)cc3)c2)c1	> 100 µM (inactive)	> 100 µM (inactive)	> 100 µM (inactive)	> 100 µM (inactive)	> 100 µM (inactive)	> 100 µM (inactive)	0.264 µM (active)	> 100 µM (inactive)		> 100 µM (inactive)	> 100 µM (inactive)		> 100 µM (inactive)	> 100 µM (inactive)	> 100 µM (inactive)	> 100 µM (inactive)	> 100 µM (inactive)	> 100 µM (inactive)	> 100 µM (inactive)	
CC(=O)CC(N)=O	> 100 µM (inactive)	> 100 µM (inactive)	> 100 µM (inactive)	> 100 µM (inactive)	> 100 µM (inactive)	> 100 µM (inactive)	> 100 µM (inactive)	> 100 µM (inactive)	> 100 µM (inactive)	> 100 µM (inactive)	> 100 µM (inactive)	> 100 µM (inactive)	> 100 µM (inactive)	> 100 µM (inactive)	> 100 µM (inactive)	> 100 µM (inactive)				
O=C(CSc1nnc(Cc2ccccc2)o1)Nc1ccccc1	> 100 µM (inactive)	> 100 µM (inactive)	> 100 µM (inactive)	> 100 µM (inactive)	> 100 µM (inactive)	> 100 µM (inactive)	> 100 µM (inactive)	> 100 µM (inactive)	> 100 µM (inactive)	> 100 µM (inactive)	> 100 µM (inactive)	> 100 µM (inactive)	> 100 µM (inactive)	> 100 µM (inactive)		> 100 µM (inactive)				
O=C1Cc2ccccc2CCc2ccccc21	> 100 µM (inactive)	83 µM (inactive)	> 100 µM (inactive)	> 100 µM (inactive)	> 100 µM (inactive)	> 100 µM (inactive)	75.3 µM (inactive)	> 100 µM (inactive)	> 100 µM (inactive)	82.4 µM (inactive)	> 100 µM (inactive)	> 100 µM (inactive)	64.1 µM (inactive)	81.8 µM (inactive)	> 100 µM (inactive)	> 100 µM (inactive)				
C(=N\Cc1ccccc1)/c1ccccc1-c1ccccc1/C=N/Cc1ccccc1	6.5 µM (inactive)	> 10 µM (inactive)	> 10 µM (inactive)	> 7.03 µM (inactive)	> 7.96 µM (inactive)		3.13 µM (inactive)	4.6 µM (inactive)	> 7.46 µM (inactive)	3.01 µM (inactive)	> 10 µM (inactive)	> 10 µM (inactive)	> 10 µM (inactive)	4.59 µM (inactive)	> 10 µM (inactive)	> 10 µM (inactive)	> 10 µM (inactive)	> 10 µM (inactive)	> 10 µM (inactive)	
N#CC(/N=N/c1ccccc1C(=O)O)C(N)=O (stereo not given)	> 100 µM (inactive)	> 100 µM (inactive)	> 100 µM (inactive)	> 100 µM (inactive)	> 100 µM (inactive)		> 100 µM (inactive)	> 100 µM (inactive)		> 100 µM (inactive)	82.8 µM (inactive)		> 100 µM (inactive)	60.3 µM (inactive)	> 100 µM (inactive)	> 100 µM (inactive)	> 100 µM (inactive)	39.8 µM (inactive)	> 100 µM (inactive)	
